Strand notation (5' to 3'): a small letter for the sugar, then the base; units joined by * are phosphorothioate-linked, units joined directly phosphodiester-linked; [ ] holds rarer units or linkages, { } end groups; capitals alone tell only the bases. e = 2'-O-(2-methoxyethyl) (MOE); [5mC] = 5-methylcytosine; d = 2'-deoxy (DNA)
Test system: human SMAD7 mRNA
Experiment: Antisense inhibition of human SMAD7 mRNA expression in Hep3B cells by 5-10-5 MOE gapmers, single concentration, electroporation, RT-PCR (Example 1, Study 1 and 2)
Format: cell-based
Settings: for % Inhibition: Study 2, electroporation with 15,000 nM antisense oligonucleotide; for % Inhibition of SMAD7 mRNA: electroporation with 15,000 nM antisense oligonucleotide (Study 2)
Summary of the method: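 Readout is percent SMAD7 mRNA inhibition versus untreated cells, measured by qRT-PCR (RTS5062) and corrected for total RNA by RIBOGREEN. Oligonucleotide, 5,000 nM or 15,000 nM, was delivered by electroporation into Hep3B cells at 20,000 per well. RNA was collected about 24 h later.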

[1] = electroporation, 15,000 nM antisense oligonucleotide (Study 2), 5-10-5 MOE gapmers targeting SEQ ID NO: 1 and 2
[2] = 5-10-5 MOE gapmers targeting SEQ ID NO: 1 and 2
[3] = electroporation, 5,000 nM, approximately 24 hours, relative to untreated control cells, gapmers targeting SEQ ID NO: 1 and 2
[4] = electroporation, 15,000 nM, approximately 24 hours, relative to untreated control cells, gapmers targeting SEQ ID NO: 1 and 2

Substance	% inhibition of SMAD7 mRNA expression [1]	% Inhibition [2]	other results
771881 (antisense eA*eT*eT*eT*eT*d[5mC]*d[5mC]*dA*dA*dA*dA*dG*dG*dA*d[5mC]*eA*eA*eA*eA*e[5mC]) [compound 771881]	0%		
771882 (antisense eG*e[5mC]*eA*eT*e[5mC]*dA*dT*dG*dA*dA*dA*dA*dT*d[5mC]*dT*eT*eA*eA*eT*eA) [compound 771882]	35%		
771883 (antisense eA*eG*e[5mC]*eT*eG*dG*d[5mC]*dA*d[5mC]*dT*dG*dA*dA*dT*dG*e[5mC]*eT*eG*eA*eT) [compound 771883]		26%	% inhibition of SMAD7 mRNA expression [3]: 0%
771884 (antisense e[5mC]*eT*eG*e[5mC]*e[5mC]*dA*d[5mC]*d[5mC]*d[5mC]*dT*dG*dA*dG*dA*dG*eT*eG*eT*eA*eG) [compound 771884]		3%	
771886 (antisense eA*eA*e[5mC]*e[5mC]*eA*dG*dG*dT*dT*d[5mC]*d[5mC]*d[5mC]*dA*d[5mC]*dT*eG*eT*eT*eA*e[5mC]) [compound 771886]		0%	
771887 (antisense e[5mC]*eA*eG*e[5mC]*e[5mC]*dA*d[5mC]*dT*dG*d[5mC]*dT*dG*dT*d[5mC]*dT*eG*eA*eG*eG*eA) [compound 771887]		14%	
771888 (antisense eT*e[5mC]*eG*e[5mC]*e[5mC]*dA*dT*dG*dG*dA*dG*dA*dA*dT*dG*eT*eA*eA*eT*eT) [compound 771888]	0%		% Inhibition of SMAD7 mRNA [2]: 21%
771889 (antisense eT*eA*eA*eG*eA*dG*d[5mC]*dA*dT*dT*dT*dA*dT*d[5mC]*dT*e[5mC]*eG*e[5mC]*e[5mC]*eA) [compound 771889]	29%		
771890 (antisense eA*eG*eT*e[5mC]*eT*dG*dA*dA*dG*d[5mC]*d[5mC]*d[5mC]*d[5mC]*d[5mC]*dA*eA*e[5mC]*e[5mC]*eT*eG) [compound 771890]	14%		
771892 (antisense e[5mC]*eT*eG*eA*eA*dG*dT*dT*dT*d[5mC]*dT*d[5mC]*d[5mC]*dT*d[5mC]*e[5mC]*e[5mC]*eA*eT*e[5mC]) [compound 771892]		2%	
771893 (antisense eG*eT*e[5mC]*eA*eT*d[5mC]*d[5mC]*dG*dT*d[5mC]*d[5mC]*dA*d[5mC]*dT*dG*eT*e[5mC]*eT*eG*e[5mC]) [compound 771893]			% inhibition of SMAD7 mRNA expression [4]: 35%
771894 (antisense e[5mC]*eA*eA*eA*eA*dG*dG*dG*dA*dA*dA*dG*dG*dA*dG*eG*eT*eT*eT*eG) [compound 771894]		17%	
771895 (antisense eA*eT*eT*eT*eG*d[5mC]*dA*dA*d[5mC]*dA*dA*dT*dA*dA*dA*eA*e[5mC]*eA*eA*eA) [compound 771895]		0%	
771896 (antisense eG*eG*eG*e[5mC]*e[5mC]*d[5mC]*d[5mC]*d[5mC]*dT*dT*d[5mC]*dT*dG*d[5mC]*d[5mC]*eT*eT*e[5mC]*eA*eT) [compound 771896]	0%		% Inhibition of SMAD7 mRNA [2]: 17%
771897 (antisense e[5mC]*eT*e[5mC]*eT*e[5mC]*dA*dG*dG*dG*dT*d[5mC]*dT*d[5mC]*dA*dG*eT*eT*eT*eG*eA) [compound 771897]	44%		
771898 (antisense eG*eG*eT*eG*eT*dG*dA*dG*d[5mC]*dT*dG*dT*dG*dG*dA*e[5mC]*eA*e[5mC]*eA*eG) [compound 771898]	27%		
771899 (antisense e[5mC]*e[5mC]*eT*eG*eA*dT*dT*dG*dT*d[5mC]*dT*d[5mC]*d[5mC]*dA*d[5mC]*eA*eT*e[5mC]*e[5mC]*e[5mC]) [compound 771899]		47%	% inhibition of SMAD7 mRNA expression [3]: 57%
771901 (antisense eA*eA*eA*eA*eT*dG*d[5mC]*d[5mC]*d[5mC]*dA*d[5mC]*d[5mC]*dA*dG*dT*e[5mC]*eT*eT*e[5mC]*e[5mC]) [compound 771901]			% inhibition of SMAD7 mRNA expression [4]: 41%
